Assay results from US9796671B2, “Aurora kinase inhibitors” (REGENTS OF THE UNIVERSITY OF MINNESOTA, priority 2012, dated 2017).

What was measured:
[1] = tested on: A549 lung cancer cells; test: Cytotoxicity (MTS assay); assay type: cell-based, human
Protocol: To estimate the cytotoxicity of Compound 1, cells are seeded (8×10^3 cells per well) in 96-well plates and cultured overnight. Cells are fed with fresh medium and treated with different doses of Compound 1. After culturing for various times, the cytotoxicity of Compound 1 is measured using an MTS assay kit (Promega, Madison, Wis.) according to the manufacturer's instructions.
The toxicity of Compound 1 on both MRC-5 normal lung cells and A549 lung cancer cells was then examined.

[2] = molecular target: Aurora B (Homo sapiens, UniProt Q96GD4); test: Aurora B in vitro kinase assay (histone H3 Ser10 phosphorylation, Western blot); assay type: biochemical
Protocol: (§1) Proteins are resolved by SDS-PAGE and transferred onto polyvinylidene difluoride membranes (Millipore, Mass.), which are blocked with nonfat milk and hybridized with specific primary antibodies. The protein bands are visualized using an enhanced chemiluminescence reagent (GE Healthcare, Pittsburgh, Pa.) after hybridization with a horseradish peroxidase-conjugated secondary antibody.
Reactions are carried out in 1× kinase buffer (25 mM Tris-HCl pH 7.5, 5 mM beta-glycerophosphate, 2 mM dithiothreitol (DTT), 0.1 mM Na3VO4, 10 mM MgCl2 and 5 mM MnCl2) containing 100 μM ATP at 30° C. for 30 minutes. Reactions are stopped and proteins detected by Western blotting.
An in vitro kinase assay was used to determine whether Compound 1 could inhibit Aurora B kinase activity using recombinant Aurora B protein and various concentrations of Compound 1. […] The effect of Compound 1 on Aurora A kinase activity using an in vitro kinase assay was also examined.

[3] = tested on: A549 cells; test: Apoptosis (Annexin V/PI staining); assay type: cell-based, human; conditions: A549, 5 μM, 72 hours
Protocol: (§2) Cells are plated in 60-mm plates and treated or not treated with Compound 1 for the indicated time. At each time point, cells are fixed in 70% ethanol and stored at −20° C. for 24 h. After staining, the cell cycle distribution or apoptosis is determined using a BD FACSCalibur Flow Cytometer (BD Biosciences, San Jose, Calif.). Aurora B inhibition leads to failure in cytokinesis and abnormal exit from mitosis, which could result in polyploidy cells, cell cycle arrest, and ultimately apoptosis. The ability to induce polyploidy cells was further examined in A549 cells treated or not treated with Compound 1. […] In addition, Compound 1 treatment for 48 hours caused an increase in the number of A549 and H520 cells occupying the G2/M phase. Moreover, exposure of these cells to Compound 1 for 72 hours induced apoptosis as measured by Annexin V/PI staining. For example, exposure to 5 μM Compound 1 induced 48% or 82% apoptosis in A549 cells and H520 cells, compared to 8% or 38% in untreated control cells, respectively.

[4] = tested on: H520 cells; test: Apoptosis (Annexin V/PI staining); assay type: cell-based, human; conditions: H520, 5 μM, 72 hours
Protocol: as §2

[5] = tested on: A549 cells; test: Polyploidy induction (immunofluorescence microscopy); assay type: cell-based, human; conditions: A549, 1 μM, 48 h
Protocol: A549 cells are seeded in four-chamber slides and cultured overnight. The cells are then treated with DMSO or Compound 1 (1 μM) for 48 h at 37° C. After treatment, the cells are washed with PBS and fixed with methanol for 12 hours, followed by blocking with 3% PBS for 1 hour. The cells are then incubated with α-tubulin antibodies (1:100) overnight and DNA is stained with 4′-6-diamidino-2-phenylindole (DAPI, Pierce) for 30 minutes at room temperature. The cells are evaluated by fluorescent microscopy.
as §2, with “Aurora” for “Cells are plated in 60-mm plates and treated or not treated with Compound 1 for the indicated time. At each time point, cells are fixed in 70% ethanol and stored at −20° C. for 24 h. After staining, the cell cycle distribution or apoptosis is determined using a BD FACSCalibur Flow Cytometer (BD Biosciences, San Jose, Calif.). Aurora”

[6] = tested on: A549 lung cancer cells xenograft; test: Xenograft mouse model, oral gavage (Example 7); assay type: in vivo; conditions: 40 mg/kg oral gavage 5 times a week
Excerpt: Athymic nude mice (6 week old nu/nu female mice, Harlan Laboratory, Minneapolis, Minn.) were inoculated in the right flank with A549 lung cancer cells (3*10^6 cells/mouse). Mice were maintained under “specific pathogen-free” conditions based on the guidelines established by the University of Minnesota Institutional Animal Care and Use Committee. Tumors were allowed to grow to an average of ˜53.5±34.5 mm^3 and then mice were divided into 2 equal groups with a similar average tumor volume (group 1; n=15), vehicle only; (group 2, […]), compound 1 at 40 mg/kg. Treatment with vehicle or compound 1 was initiated on Day 13 after inoculation of cells and continued to Day 80 (˜9 wks) and was administered by oral gavage 5 times a week. Tumor volume was measured once a week and body weight was measured once a week. Compound 1 was prepared in 2.5% DMSO/5% PEG 400/5% Tween-80 in 1×PBS and sonicated for ˜20 minutes. […] Data are shown as means±S.E (FIG. 1).

[7] = tested on: histone H3 phosphorylation on Ser10; test: Histone H3 (Ser10) phosphorylation in lung cancer cells (Western blot); assay type: cell-based; conditions: dose- and time-dependent
Excerpt: as §1
Phosphorylation of a highly conserved serine residue (Ser10) in histone H3 is thought to be crucial for entry into mitosis.

[8] = tested on: A549 cells transfected with mock shRNA; test: Anchorage-independent growth, mock shRNA cells; assay type: cell-based; conditions: Homo sapiens
Protocol: (§3) Tumor cells are suspended in basal medium Eagle (BME) medium and added to 0.6% agar, with different concentrations of Compound 1 in a base layer and a top layer of 0.3% agar. The cultures are maintained at 37° C. in a 5% CO2 incubator for 1 to 2 weeks and then colonies are counted under a microscope using the Image-Pro Plus software (v.4) program (Media Cybernetics, Silver Spring, Md.).
The effect of knocking down Aurora B expression in A549 cancer cells on the cell's sensitivity to Compound 1 was evaluated. […] Compound 1 (0.5 μM) inhibited anchorage-independent growth of A549 cells transfected with mock shRNA by about 90%.

[9] = tested on: HCT116 p53+/+ cells; test: Soft agar assay, p53 wildtype colon cancer cells; assay type: cell-based
Protocol: as §3
The effect of compound 1 in a pair of colon cancer cell lines, p53 wildtype (HCT116 p53^+/+) and p53-deficient (HCT116 p53^−/−) cells was also examined to determine whether the sensitivity of cells to compound 1 directly correlates with the status of p53 in cells.

Chain of Aurora B (Q96GD4 whole entry): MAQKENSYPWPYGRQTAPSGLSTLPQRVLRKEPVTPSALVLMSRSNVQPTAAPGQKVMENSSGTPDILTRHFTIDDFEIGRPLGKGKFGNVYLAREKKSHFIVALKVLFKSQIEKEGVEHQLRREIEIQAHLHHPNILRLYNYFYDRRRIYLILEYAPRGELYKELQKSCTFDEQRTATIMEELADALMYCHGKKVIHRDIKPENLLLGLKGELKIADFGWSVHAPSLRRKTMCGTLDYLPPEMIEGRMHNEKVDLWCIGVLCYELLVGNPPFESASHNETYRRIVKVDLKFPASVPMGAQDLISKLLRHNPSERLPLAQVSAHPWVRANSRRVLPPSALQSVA

O=C(/C=C/c1ccc2c(c1)OCO2)/C=C1/C(=O)Nc2ccccc21 [Compound 1]
cytotoxic effects on A549 lung cancer cells ([1]; 1 μM or less): no obvious cytotoxic effects | toxicity toward A549 cancer cells ([1]; 5 μM, 48 hours): weak toxicity | toxicity on A549 lung cancer cells ([1]; concentrations greater than 10 μM): substantial toxicity | inhibition at 0.05 µM ([2]; 0.05 μM): 22% | inhibition at 0.1 µM ([2]; 0.1 μM): 50% | histone H3 (Ser10) phosphorylation band by Aurora B ([2]; 1 μM): only a weak histone H (Ser10) band | concentration required for Aurora B inhibition ([2]; discussion statement): ≤ 1 µM | apoptosis (Annexin V/PI staining) [3]: 48% | apoptosis (Annexin V/PI staining) [4]: 82% | induction of polyploidy cells [5]: caused the induction of polyploidy cells | final tumor volume (mean±S.E.) ([6]; Day 13 to Day 80, vehicle 1004±140.1, in mm³ (unit assumed)): 403.2±50.0 | toxicity in mice ([6]; ~9 wks): No toxicity | histone H3 phosphorylation on Ser10 in cancer cells [7]: suppressed | inhibition at 0.5 µM [8]: ~90% | inhibition of growth in soft agar ([9]; 0.05 μM): no inhibition | inhibition at 0.1 µM ([9]; Homo sapiens, HCT-116, 0.1 μM, read-out: inhibition of growth in soft agar): 55%
